Data from ChEMBL document CHEMBL2321873, “1-(4-Phenylpiperazin-1-yl)-2-(1H-pyrazol-1-yl)ethanones as novel CCR1 antagonists” (Bioorg Med Chem Lett, 2013).
Activity calls are given as the source filed them. No cut-off for these calls is given here.

Experiments:
[1] = target: T1, C-X-C chemokine receptor type 5 (Homo sapiens) (UniProt P32302); assay: Antagonist activity at CXCR5 (unknown origin) assessed as inhibition of calcium flux at 10 uM; format: functional
T1 sequence (whole entry): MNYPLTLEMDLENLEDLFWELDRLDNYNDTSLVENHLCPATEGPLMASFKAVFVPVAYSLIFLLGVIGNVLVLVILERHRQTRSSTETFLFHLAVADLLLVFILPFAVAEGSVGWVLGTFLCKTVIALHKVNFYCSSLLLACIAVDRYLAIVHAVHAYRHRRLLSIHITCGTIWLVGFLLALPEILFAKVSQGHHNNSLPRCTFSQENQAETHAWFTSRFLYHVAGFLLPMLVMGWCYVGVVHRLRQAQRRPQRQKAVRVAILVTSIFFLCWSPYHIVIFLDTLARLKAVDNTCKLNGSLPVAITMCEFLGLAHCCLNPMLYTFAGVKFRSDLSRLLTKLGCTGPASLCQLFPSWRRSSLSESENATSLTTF

[2] = target: T2, C-C chemokine receptor type 9 (Homo sapiens) (UniProt P51686); assay: Binding affinity to CCR9 (unknown origin) at 10 uM by radioligand displacement assay
T2 sequence (whole entry): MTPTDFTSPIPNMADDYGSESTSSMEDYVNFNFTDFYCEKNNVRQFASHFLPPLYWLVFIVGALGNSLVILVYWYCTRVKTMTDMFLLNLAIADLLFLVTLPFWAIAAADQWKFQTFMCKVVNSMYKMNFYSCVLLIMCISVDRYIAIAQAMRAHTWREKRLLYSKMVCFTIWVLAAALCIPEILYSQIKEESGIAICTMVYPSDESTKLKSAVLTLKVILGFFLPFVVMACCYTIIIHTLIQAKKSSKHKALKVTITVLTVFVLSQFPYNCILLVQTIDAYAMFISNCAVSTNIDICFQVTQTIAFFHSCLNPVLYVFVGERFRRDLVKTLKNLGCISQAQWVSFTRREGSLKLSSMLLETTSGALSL

[3] = target: T3, C-X-C chemokine receptor type 3 (Homo sapiens) (UniProt P49682); assay: Antagonist activity at CXCR3 (unknown origin) assessed as inhibition of chemotaxis at 10 uM
T3 sequence (whole entry): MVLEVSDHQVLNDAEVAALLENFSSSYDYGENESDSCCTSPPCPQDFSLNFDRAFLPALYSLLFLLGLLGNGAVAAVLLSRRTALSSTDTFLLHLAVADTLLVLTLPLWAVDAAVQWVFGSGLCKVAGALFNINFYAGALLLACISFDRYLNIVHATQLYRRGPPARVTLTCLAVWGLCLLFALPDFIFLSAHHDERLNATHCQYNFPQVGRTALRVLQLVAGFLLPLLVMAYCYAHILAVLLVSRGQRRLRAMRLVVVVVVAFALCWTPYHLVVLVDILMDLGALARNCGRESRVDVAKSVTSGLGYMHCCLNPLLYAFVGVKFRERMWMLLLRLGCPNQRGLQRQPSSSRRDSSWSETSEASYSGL

Cytomegalovirus = assay: Binding affinity to CMV US28 at 10 uM by radioligand displacement assay
Rattus norvegicus = assay: Acute toxicity in Sprague-Dawley rat up to 1000 mg/kg; format: organism-based; parameters: dose 1000 mg/kg; details: in vivo
[4] = target: T4, C-C chemokine receptor type 7 (Homo sapiens) (UniProt P32248); assay: Antagonist activity at CCR7 (unknown origin) assessed as inhibition of chemotaxis at 10 uM
T4 sequence (whole entry): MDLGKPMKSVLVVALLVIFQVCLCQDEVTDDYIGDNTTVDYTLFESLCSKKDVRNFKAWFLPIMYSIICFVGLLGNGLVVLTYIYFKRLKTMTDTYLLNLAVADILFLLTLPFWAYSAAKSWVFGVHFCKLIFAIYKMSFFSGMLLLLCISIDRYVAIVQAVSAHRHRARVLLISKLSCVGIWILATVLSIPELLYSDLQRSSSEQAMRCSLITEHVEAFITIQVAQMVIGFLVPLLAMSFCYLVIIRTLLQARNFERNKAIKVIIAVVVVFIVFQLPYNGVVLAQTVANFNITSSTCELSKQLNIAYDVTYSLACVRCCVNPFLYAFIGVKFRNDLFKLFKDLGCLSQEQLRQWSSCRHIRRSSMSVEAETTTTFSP

[5] = target: T5, Atypical chemokine receptor 1 (Homo sapiens) (UniProt Q16570); assay: Antagonist activity at Duffy (unknown origin) assessed as inhibition of chemotaxis at 10 uM
T5 sequence (whole entry): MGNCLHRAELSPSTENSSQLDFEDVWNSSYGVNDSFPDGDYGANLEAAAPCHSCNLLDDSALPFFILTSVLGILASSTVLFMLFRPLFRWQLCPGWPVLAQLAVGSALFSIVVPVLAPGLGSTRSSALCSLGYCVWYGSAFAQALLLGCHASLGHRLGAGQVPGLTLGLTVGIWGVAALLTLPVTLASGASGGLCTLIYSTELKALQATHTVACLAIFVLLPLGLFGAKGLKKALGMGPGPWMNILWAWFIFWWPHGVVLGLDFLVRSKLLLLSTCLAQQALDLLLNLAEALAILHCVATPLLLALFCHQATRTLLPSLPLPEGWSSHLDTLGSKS

[6] = target: T6, C-C chemokine receptor type 4 (Homo sapiens) (UniProt P51679); assay: Binding affinity to CCR4 (unknown origin) at 10 uM by radioligand displacement assay
T6 sequence (whole entry): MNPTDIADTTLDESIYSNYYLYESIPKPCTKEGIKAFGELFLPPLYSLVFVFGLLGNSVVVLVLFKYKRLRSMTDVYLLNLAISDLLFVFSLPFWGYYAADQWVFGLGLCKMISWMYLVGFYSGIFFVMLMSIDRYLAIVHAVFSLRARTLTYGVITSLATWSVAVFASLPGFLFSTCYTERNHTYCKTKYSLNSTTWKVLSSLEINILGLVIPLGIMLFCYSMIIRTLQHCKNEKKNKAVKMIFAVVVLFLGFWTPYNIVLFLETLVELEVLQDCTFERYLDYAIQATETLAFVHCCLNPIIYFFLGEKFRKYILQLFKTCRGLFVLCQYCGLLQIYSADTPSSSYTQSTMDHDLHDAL

[7] = Plasma clearance in Beagle dog at 1 mg/kg, iv; format: ADME, organism-based, Canis lupus familiaris; parameters: dose 1 mg/kg, route intravenous
[8] = target: T7, C-C chemokine receptor-like 2 (Homo sapiens) (UniProt O00421); assay: Binding affinity to CCR11 (unknown origin) at 10 uM by radioligand displacement assay
T7 sequence (whole entry): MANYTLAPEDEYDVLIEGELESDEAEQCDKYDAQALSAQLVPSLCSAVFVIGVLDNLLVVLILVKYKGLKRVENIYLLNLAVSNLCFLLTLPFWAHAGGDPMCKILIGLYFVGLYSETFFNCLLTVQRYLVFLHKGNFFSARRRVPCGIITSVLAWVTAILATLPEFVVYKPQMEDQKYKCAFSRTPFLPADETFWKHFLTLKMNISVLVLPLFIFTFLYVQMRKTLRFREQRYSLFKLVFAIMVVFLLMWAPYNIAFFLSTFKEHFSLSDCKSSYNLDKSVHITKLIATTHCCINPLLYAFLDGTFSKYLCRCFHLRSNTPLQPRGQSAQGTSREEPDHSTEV

[9] = target: T6, C-C chemokine receptor type 4 (Homo sapiens); assay: Antagonist activity at CCR4 (unknown origin) assessed as inhibition of calcium flux at 10 uM; format: functional

**Q.** For `COc1cc(N2CCN(C(=O)Cn3nc(C(F)(F)F)c(Cl)c3C)CC2)ccc1Cl`, which inhibition [1] is on record?
**A.** The inhibition was “inactive”.

**Q.** What about the Activity [2] of the same compound?
**A.** Its Activity is “inactive”.

**Q.** What about the inhibition [3] of the same compound?
**A.** The inhibition was “inactive”.

**Q.** And the Activity (Cytomegalovirus)?
**A.** The Activity was “inactive”.

**Q.** And the Activity (Rattus norvegicus)?
**A.** The Activity was “Non-toxic”.

**Q.** And the inhibition [4]?
**A.** The inhibition was “inactive”.

**Q.** And the inhibition [5]?
**A.** Its inhibition is “inactive”.

**Q.** And the Activity [6]?
**A.** The Activity was “inactive”.

**Q.** What about the clearance [7] of the same compound?
**A.** Its clearance is 9.6 mL/min/kg.

**Q.** And the Activity [8]?
**A.** Its Activity is “inactive”.

**Q.** And the inhibition [9]?
**A.** Its inhibition is “inactive”.
